Consider one compound from ChEMBL document CHEMBL5696441 (Nat Chem Biol, 2011).

Data set [1] has as its target Tyrosine-protein kinase receptor TYRO3 (Homo sapiens) (UniProt Q06418). Nature of the data set: Inhibition of TYRO3 (unknown origin) assessed as remaining activity at 1 uM by Kinome scan method relative to control.
Data set [2] has as its target Receptor-interacting serine/threonine-protein kinase 2 (Homo sapiens) (UniProt O43353). Briefly: Inhibition of RIPK2 (unknown origin) assessed as remaining activity at 1 uM by Kinome scan method relative to control.
The species entered for data set [3] is Homo sapiens. Briefly: Inhibition of human CDK1/CycA2 assessed as residual activity at 1 uM using RBER-CHKtide as substrate in presence of 33P-ATP by ProQinase assay relative to control.
The target of data set [4] is Ribosomal protein S6 kinase alpha-1 (Homo sapiens) (UniProt Q15418). Briefly: Inhibition of C-terminal kinase domain RPS6KA1 (unknown origin) assessed as remaining activity at 1 uM by Kinome scan method relative to control.
The target in data set [5] is Ribosomal protein S6 kinase beta-2 (Homo sapiens) (UniProt Q9UBS0). Briefly: Inhibition of human S6K-beta assessed as residual activity at 1 uM using RBER-CHKtide as substrate in presence of 33P-ATP by ProQinase assay relative to control.
Ribosomal protein S6 kinase beta-2 (Homo sapiens), sequence (Q9UBS0 whole entry): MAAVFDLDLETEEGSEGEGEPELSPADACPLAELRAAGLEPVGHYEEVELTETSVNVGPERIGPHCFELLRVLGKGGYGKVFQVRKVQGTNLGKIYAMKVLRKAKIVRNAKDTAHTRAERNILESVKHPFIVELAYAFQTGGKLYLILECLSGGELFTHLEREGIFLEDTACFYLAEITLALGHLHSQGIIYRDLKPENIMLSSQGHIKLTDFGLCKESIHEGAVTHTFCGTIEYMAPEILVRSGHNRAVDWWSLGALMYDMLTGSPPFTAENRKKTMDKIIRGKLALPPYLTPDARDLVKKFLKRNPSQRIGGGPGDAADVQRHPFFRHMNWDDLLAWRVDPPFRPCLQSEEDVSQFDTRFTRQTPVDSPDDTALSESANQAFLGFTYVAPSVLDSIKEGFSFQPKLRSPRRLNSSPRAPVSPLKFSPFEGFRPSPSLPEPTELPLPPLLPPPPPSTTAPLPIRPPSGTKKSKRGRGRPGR
The target in data set [6] is T1, Serine/threonine-protein kinase NLK (Homo sapiens) (UniProt Q9UBE8).
T1 sequence (whole entry): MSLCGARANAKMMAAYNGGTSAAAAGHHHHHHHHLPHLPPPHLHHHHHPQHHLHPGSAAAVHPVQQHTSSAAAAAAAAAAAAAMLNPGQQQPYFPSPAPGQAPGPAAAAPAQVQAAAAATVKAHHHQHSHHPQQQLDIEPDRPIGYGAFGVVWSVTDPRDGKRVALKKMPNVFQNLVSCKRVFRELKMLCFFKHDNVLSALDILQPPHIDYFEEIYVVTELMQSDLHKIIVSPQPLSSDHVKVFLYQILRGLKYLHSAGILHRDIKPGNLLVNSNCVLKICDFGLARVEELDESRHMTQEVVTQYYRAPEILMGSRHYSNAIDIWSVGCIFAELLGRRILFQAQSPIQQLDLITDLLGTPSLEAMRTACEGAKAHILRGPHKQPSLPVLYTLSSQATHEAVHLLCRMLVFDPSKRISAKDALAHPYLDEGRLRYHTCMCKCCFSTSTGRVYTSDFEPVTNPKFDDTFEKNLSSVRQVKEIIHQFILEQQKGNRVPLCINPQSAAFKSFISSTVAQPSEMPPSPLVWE
Briefly: Inhibition of human NLK assessed as residual activity at 1 uM using RBER-GSK3 as substrate in presence of 33P-ATP by ProQinase assay relative to control.

Data set [7] concerns the target Angiopoietin-1 receptor (Homo sapiens) (UniProt Q02763). Briefly: Inhibition of human TIE2 assessed as residual activity at 1 uM using polyEY as substrate in presence of 33P-ATP by ProQinase assay relative to control.
The subject of data set [8] is Tyrosine-protein kinase ABL1 (Homo sapiens), P00519 [H396P]. Nature of the data set: Inhibition of human ABL1 H396P mutant assessed as residual activity at 1 uM using Poly(Ala,Glu,Lys,Tyr)6:2:5:1 as substrate in presence of 33P-ATP by ProQinase assay relative to control.
Data set [9] addresses Casein kinase I isoform alpha (Homo sapiens) (UniProt P48729). Briefly: Inhibition of human CK1alpha1 assessed as residual activity at 1 uM using casein as substrate in presence of 33P-ATP by ProQinase assay relative to control.
In data set [10] the target is T2, Aurora kinase C (Homo sapiens) (UniProt Q9UQB9).
T2 sequence (whole entry): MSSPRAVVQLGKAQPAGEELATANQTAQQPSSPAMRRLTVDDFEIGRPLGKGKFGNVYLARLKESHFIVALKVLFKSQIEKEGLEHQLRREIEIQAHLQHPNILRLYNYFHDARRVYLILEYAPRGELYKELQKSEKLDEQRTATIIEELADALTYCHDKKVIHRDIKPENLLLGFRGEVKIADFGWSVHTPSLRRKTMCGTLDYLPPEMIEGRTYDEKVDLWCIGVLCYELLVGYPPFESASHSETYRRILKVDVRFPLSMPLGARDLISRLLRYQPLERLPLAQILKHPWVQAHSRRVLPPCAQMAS
Briefly: Inhibition of human AuroraC assessed as residual activity at 1 uM using bio-4xCHKT as substrate in presence of 33P-ATP by ProQinase assay relative to control.

The target of data set [11] is T3, Phosphorylase b kinase gamma catalytic chain, liver/testis isoform (Homo sapiens) (UniProt P15735).
T3 sequence (whole entry): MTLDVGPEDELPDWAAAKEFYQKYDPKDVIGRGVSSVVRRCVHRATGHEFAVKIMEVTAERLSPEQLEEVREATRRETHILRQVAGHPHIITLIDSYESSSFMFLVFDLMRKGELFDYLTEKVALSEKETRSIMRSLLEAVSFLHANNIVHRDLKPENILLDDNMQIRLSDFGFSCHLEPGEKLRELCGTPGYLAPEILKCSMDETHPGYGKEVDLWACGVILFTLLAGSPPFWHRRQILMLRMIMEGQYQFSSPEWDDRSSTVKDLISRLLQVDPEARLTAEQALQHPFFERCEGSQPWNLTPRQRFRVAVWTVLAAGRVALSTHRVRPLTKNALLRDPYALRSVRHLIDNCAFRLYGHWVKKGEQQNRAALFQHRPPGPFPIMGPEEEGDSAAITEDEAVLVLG
Briefly: Inhibition of human PHKG2 assessed as residual activity at 1 uM using RBER-CHKtide as substrate in presence of 33P-ATP by ProQinase assay relative to control.

Data set [12] concerns Tyrosine-protein kinase ABL1 (Homo sapiens), P00519 [M351T]. Nature of the data set: Inhibition of human ABL1 M351T mutant assessed as residual activity at 1 uM using Poly(Ala,Glu,Lys,Tyr)6:2:5:1 as substrate in presence of 33P-ATP by ProQinase assay relative to control.
Data set [13] concerns Mast/stem cell growth factor receptor Kit (Homo sapiens), P10721 [V559D,T670I]. Briefly: Inhibition of KIT V559D/T670I mutant (unknown origin) assessed as remaining activity at 1 uM by Kinome scan method relative to control.
Mast/stem cell growth factor receptor Kit (Homo sapiens), P10721 [V559D,T670I], sequence (P10721 whole entry V559D/T670I): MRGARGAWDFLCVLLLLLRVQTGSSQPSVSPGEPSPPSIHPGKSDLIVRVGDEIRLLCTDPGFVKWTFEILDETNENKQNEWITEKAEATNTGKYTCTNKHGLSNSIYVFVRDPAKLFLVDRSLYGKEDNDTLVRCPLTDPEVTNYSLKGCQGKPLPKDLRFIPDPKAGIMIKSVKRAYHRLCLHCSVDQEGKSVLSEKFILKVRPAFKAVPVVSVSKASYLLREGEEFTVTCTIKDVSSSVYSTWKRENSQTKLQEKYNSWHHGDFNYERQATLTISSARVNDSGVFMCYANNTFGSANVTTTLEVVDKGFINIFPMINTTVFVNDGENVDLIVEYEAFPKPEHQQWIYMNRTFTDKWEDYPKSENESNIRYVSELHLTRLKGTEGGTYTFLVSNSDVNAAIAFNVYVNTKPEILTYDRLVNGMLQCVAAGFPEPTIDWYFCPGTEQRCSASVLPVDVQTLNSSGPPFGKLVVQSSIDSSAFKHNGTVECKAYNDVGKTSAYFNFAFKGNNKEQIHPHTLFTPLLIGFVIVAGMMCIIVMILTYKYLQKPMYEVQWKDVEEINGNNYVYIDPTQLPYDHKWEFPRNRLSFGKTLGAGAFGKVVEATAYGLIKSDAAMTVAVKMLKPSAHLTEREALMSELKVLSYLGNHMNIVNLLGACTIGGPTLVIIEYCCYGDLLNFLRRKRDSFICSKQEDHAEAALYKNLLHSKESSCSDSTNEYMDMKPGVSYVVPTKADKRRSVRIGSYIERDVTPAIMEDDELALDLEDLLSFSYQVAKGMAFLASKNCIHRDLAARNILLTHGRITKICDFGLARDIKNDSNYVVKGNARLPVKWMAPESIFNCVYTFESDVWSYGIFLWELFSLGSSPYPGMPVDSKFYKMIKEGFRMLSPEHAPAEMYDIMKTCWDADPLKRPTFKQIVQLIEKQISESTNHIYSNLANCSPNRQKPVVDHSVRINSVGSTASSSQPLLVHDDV
The target of data set [14] is Mitogen-activated protein kinase 13 (Homo sapiens) (UniProt O15264). Nature of the data set: Inhibition of P38delta (unknown origin) assessed as remaining activity at 1 uM by Kinome scan method relative to control.
Mitogen-activated protein kinase 13 (Homo sapiens), sequence (O15264 whole entry): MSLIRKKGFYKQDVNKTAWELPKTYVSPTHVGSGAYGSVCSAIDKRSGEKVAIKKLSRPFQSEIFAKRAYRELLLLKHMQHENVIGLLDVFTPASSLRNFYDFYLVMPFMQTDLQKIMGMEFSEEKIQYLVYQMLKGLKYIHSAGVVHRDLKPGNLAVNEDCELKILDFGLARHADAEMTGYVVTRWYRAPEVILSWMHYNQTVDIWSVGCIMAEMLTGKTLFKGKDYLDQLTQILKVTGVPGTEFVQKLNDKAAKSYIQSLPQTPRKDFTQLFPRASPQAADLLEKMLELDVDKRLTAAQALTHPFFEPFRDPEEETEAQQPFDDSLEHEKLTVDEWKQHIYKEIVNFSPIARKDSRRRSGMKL
The target of data set [15] is CYP3A4 (Homo sapiens, UniProt P08684). Nature of the data set: Inhibition of CYP3A4 (unknown origin) at 10 uM relative to control. The class given is ADME.
CYP3A4, sequence (P08684 whole entry): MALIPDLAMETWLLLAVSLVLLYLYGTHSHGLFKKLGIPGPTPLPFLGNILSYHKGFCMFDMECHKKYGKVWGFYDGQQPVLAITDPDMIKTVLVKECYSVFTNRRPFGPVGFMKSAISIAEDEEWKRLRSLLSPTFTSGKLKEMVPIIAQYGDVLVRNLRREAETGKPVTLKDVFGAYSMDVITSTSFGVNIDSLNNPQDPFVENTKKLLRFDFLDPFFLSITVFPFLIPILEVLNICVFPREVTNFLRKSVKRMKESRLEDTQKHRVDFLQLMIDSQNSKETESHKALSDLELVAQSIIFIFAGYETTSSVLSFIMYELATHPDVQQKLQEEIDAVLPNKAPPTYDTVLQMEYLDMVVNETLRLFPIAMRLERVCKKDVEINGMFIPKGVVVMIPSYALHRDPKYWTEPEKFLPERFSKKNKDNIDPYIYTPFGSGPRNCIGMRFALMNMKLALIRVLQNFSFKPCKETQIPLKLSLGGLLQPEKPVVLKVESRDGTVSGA
The target in data set [16] is Cytoplasmic tyrosine-protein kinase BMX (Homo sapiens) (UniProt P51813). Briefly: Inhibition of human BMX assessed as residual activity at 1 uM using polyEy as substrate in presence of 33P-ATP by ProQinase assay relative to control.
Cytoplasmic tyrosine-protein kinase BMX (Homo sapiens), sequence (P51813 whole entry): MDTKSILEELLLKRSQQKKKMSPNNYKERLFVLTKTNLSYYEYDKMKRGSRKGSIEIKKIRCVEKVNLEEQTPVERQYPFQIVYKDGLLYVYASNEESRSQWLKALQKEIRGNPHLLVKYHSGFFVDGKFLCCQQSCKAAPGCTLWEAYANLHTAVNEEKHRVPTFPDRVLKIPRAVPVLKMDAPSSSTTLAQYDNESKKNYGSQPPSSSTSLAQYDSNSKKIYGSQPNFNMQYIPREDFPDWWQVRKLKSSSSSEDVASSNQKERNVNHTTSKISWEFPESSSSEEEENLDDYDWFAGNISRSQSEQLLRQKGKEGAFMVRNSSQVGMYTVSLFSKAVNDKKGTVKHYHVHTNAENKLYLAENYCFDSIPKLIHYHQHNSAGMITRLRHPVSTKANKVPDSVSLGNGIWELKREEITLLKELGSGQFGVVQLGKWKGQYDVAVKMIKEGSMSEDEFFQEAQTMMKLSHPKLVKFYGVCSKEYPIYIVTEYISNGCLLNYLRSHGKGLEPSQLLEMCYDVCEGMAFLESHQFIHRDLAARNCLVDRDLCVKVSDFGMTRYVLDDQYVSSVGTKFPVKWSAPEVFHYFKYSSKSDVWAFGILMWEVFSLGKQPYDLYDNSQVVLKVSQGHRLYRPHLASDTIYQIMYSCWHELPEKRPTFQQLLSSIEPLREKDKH
The target in data set [17] is Serine/threonine-protein kinase tousled-like 1 (Homo sapiens) (UniProt Q9UKI8). Briefly: Inhibition of TLK1 (unknown origin) assessed as remaining activity at 1 uM by Kinome scan method relative to control.
Serine/threonine-protein kinase tousled-like 1 (Homo sapiens), sequence (Q9UKI8 whole entry): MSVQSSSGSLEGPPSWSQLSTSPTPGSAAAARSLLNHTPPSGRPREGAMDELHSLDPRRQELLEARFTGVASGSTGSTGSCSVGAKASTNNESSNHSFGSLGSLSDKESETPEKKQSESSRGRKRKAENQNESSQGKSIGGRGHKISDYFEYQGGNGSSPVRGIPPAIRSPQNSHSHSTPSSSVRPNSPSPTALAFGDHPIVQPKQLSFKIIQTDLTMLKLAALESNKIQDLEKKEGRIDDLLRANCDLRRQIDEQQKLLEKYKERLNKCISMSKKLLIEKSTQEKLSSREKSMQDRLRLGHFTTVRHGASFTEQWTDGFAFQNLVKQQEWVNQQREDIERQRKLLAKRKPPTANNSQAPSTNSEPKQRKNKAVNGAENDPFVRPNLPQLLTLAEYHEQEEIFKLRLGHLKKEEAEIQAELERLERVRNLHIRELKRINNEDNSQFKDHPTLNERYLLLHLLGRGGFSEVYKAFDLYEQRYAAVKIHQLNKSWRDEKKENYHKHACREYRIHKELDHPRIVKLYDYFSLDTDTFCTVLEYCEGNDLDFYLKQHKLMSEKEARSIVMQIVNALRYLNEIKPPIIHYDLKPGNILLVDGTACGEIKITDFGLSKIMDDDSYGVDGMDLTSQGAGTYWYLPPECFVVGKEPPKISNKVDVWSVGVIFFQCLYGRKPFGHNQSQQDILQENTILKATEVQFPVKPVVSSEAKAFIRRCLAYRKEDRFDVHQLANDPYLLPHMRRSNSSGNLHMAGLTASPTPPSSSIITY

Receptor-interacting serine/threonine-protein kinase 2 (Homo sapiens), sequence (O43353 whole entry): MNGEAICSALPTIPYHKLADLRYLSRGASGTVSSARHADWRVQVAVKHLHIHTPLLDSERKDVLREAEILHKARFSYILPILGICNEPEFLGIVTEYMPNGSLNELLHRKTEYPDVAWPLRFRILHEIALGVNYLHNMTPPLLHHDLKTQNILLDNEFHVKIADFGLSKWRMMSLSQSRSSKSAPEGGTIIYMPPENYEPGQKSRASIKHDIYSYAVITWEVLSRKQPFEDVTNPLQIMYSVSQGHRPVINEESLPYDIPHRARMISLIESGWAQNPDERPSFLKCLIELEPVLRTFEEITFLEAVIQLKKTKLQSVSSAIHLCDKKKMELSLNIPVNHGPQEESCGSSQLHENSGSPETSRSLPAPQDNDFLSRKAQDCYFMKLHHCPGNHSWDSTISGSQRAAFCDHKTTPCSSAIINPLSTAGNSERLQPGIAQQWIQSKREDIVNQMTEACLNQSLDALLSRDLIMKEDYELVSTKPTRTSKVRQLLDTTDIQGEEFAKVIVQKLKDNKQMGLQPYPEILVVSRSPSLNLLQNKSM
Casein kinase I isoform alpha (Homo sapiens), sequence (P48729 2-337 limits assumed): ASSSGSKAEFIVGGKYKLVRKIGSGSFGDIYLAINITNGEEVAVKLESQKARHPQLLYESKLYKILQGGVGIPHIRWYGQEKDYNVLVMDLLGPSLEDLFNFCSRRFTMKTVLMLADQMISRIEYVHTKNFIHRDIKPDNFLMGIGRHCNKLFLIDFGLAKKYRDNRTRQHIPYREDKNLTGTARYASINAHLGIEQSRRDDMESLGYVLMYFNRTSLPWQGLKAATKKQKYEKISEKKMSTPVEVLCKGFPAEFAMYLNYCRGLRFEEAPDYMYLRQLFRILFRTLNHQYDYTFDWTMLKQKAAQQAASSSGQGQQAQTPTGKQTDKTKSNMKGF

One may read the inhibition as the drop in the measured response relative to a control, in per cent. The low end stands for little suppression, the high end for strong suppression. In the case of `O=C1c2ccc(Nc3ccc(F)cc3F)cc2CCc2ccc(OC[C@H](O)CO)cc21` [Skepinone-L], the Activity came to 100% in data set [1]; 87% in [2]; 98% in data set [3]; 94% in data set [4]; 89% in [5]; 87% in data set [6]. In addition, the Activity in data set [7] was determined as 98%; in data set [8], 99%; in [9] it was 97%; in data set [10], 85%; in [11], 73%; in data set [12], 102%. Moreover, the Activity in [13] is 94%; in data set [14], 85%; in data set [16] it was 108%; in [17], 100%. This compound also registered an inhibition at 10 µM in data set [15] of 34%.
